This is an account of results in US11718600B2, “1,2,3-triazole inhibitors of P97 AAA ATPase activity” (University of Pittsburgh—Of the Commonwealth System of …, priority 2018, dated 2023).

The assay concerns the target p97 (Homo sapiens, UniProt P55072). Description: BioMol Green ATPase assay. The following applies: 200 μM ATP. The class given is biochemical. From the text:
Biomol Green (Enzo) is a […] from a biochemical reaction. Because of its high sensitivity, the assay is suitable for monitoring enzyme activities at very early substrate conversions requiring very low amount of enzymes.
The assay procedure used may be the same as in Zhang et al., “Altered cofactor regulation with disease-associated p97/VCP mutations,” Proc. Natl. Acad. Sci. USA, 112(14), E1705-E1714 (2015).
The BioMol Green ATPase assay procedure used was that which was disclosed in Zhang, et al., “Altered cofactor regulation with disease-associated p97/VCP mutations,” Proc. Natl. Acad. Sci. USA, 112(14), E1705-E1714 (2015). Compounds also show activity in a cell-based assay such as the ubiquitin assay.

Molecules are shown by their SMILES.

p97, sequence (P55072 whole entry): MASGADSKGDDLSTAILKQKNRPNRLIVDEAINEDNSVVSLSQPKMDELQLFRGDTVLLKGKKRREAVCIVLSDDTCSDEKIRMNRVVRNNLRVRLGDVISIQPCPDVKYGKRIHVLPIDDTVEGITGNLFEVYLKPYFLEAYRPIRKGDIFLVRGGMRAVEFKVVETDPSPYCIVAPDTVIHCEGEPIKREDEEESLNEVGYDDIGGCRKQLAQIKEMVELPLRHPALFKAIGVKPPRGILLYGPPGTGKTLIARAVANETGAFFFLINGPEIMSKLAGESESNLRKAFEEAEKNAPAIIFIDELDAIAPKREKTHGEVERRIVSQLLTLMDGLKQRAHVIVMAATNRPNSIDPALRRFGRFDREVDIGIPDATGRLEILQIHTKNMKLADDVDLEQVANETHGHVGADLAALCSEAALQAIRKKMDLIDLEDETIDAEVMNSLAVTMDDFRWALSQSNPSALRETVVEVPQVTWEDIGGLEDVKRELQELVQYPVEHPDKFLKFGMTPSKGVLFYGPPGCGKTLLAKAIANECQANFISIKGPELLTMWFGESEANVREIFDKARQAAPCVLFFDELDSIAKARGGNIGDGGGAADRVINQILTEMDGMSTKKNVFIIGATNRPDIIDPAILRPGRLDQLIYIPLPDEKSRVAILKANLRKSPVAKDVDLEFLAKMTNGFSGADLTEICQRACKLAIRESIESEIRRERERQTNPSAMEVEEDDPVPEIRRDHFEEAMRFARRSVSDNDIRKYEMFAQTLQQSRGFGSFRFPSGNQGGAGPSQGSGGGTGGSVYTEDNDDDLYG

In turn, `CC(C)(C)OC(=O)N1CCN(C(=O)Cn2ncc(-c3cc(F)c(OCc4nnc(SC5C=CCCC5)n4-c4cccnc4)cc3F)n2)CC1` (centres unmarked) [Entry 1] showed an IC50 below 50 nM.

Regarding `CC(C)(C)OC(=O)N1CCN(C(=O)Cn2cc(-c3cc(F)c(OCc4nnc(SC5C=CCCC5)n4-c4cccnc4)cc3F)nn2)CC1` (centres unmarked) [Entry 2], the IC50 was below 1000 nM.

Compound `[2H]C1([2H])C([2H])([2H])C([2H])([2H])C([2H])(Sc2nnc(COc3cc(F)c(-c4cnn(CC(=O)N5CCN(C(=O)OC(C)(C)C)CC5)n4)cc3F)n2-c2cccnc2)C1([2H])[2H]` [Entry 3] had an IC50 below 50 nM.

As to `[2H]C1([2H])C([2H])([2H])C([2H])([2H])C([2H])(Sc2nnc(COc3cc(F)c(-c4cn(CC(=O)N5CCN(C(=O)OC(C)(C)C)CC5)nn4)cc3F)n2-c2cccnc2)C1([2H])[2H]` [Entry 4], the IC50 is below 1000 nM.

`[2H]C1([2H])C([2H])([2H])C([2H])([2H])C([2H])(Sc2nnc(COc3cc(F)c(-c4cnn(CC(=O)N5CCNCC5)n4)cc3F)n2-c2cccnc2)C1([2H])[2H]` [Entry 5] had an IC50 below 50 nM.

In turn, `[2H]C1([2H])C([2H])([2H])C([2H])([2H])C([2H])(Sc2nnc(COc3cc(F)c(-c4cn(CC(=O)N5CCNCC5)nn4)cc3F)n2-c2cccnc2)C1([2H])[2H]` [Entry 6] registered an IC50 below 1000 nM.

As for `CN1CCN(C(=O)Cn2ncc(-c3cc(F)c(OCc4nnc(SC5C=CCCC5)n4-c4cccnc4)cc3F)n2)CC1` (centres unmarked) [Entry 7], the IC50 was below 50 nM.

For the compound `CC(C)(C)OC(=O)N1CCN(CCn2ncc(-c3cc(F)c(OCc4nnc(SC5C=CCCC5)n4-c4cccnc4)cc3F)n2)CC1` (centres unmarked) [Entry 8], the IC50 was below 100 nM.

Compound `OCCn1ncc(-c2cc(F)c(OCc3nnc(SC4C=CCCC4)n3-c3cccnc3)cc2F)n1` (centres unmarked) [Entry 9] showed an IC50 below 50 nM.

For `CN1CCC(NC(=O)OCCn2ncc(-c3cc(F)c(OCc4nnc(SC5C=CCCC5)n4-c4cccnc4)cc3F)n2)CC1` (centres unmarked) [Entry 10], the IC50 was below 50 nM.

The compound `CNC(=O)OCCn1ncc(-c2cc(F)c(OCc3nnc(S[C@H]4C=CCCC4)n3-c3cccnc3)cc2F)n1` [Entry 11] gave a 50% inhibitory concentration (IC50) below 50 nM.

With `CN1CCN(C(=O)OCCn2ncc(-c3cc(F)c(OCc4nnc(S[C@H]5C=CCCC5)n4-c4cccnc4)cc3F)n2)CC1` [Entry 12], the 50% inhibitory concentration (IC50) is below 100 nM.

Take `CN1CCN(C(=O)Cn2ncc(-c3cc(F)c(OCc4nnc(S[C@H]5C=CCCC5)n4-c4cccnc4)cc3F)n2)CC1` [Entry 13]: the IC50 is below 50 nM.

For `Fc1cc(-c2cnn(CCOCc3ccccc3)n2)c(F)cc1OCc1nnc(SC2C=CCCC2)n1-c1cccnc1` (centres unmarked) [Entry 14], the IC50 is below 1000 nM.

For the compound `OCCn1ncc(-c2cc(F)c(OCc3nnc(S[C@H]4C=CCCC4)n3-c3cccnc3)cc2F)n1` [Entry 15], the IC50 was below 50 nM.

Regarding `CC(C)(C)OC(=O)N1CCN(C(=O)Cn2ncc(-c3cc(F)c(OCc4nnc(S[C@@H]5C=CCCC5)n4-c4cccnc4)cc3F)n2)CC1` [Entry 16], the IC50 is below 1000 nM.

Regarding `CC(C)(C)OC(=O)N1CCN(C(=O)Cn2ncc(-c3cc(F)c(OCc4nnc(S[C@H]5C=CCCC5)n4-c4cccnc4)cc3F)n2)CC1` [Entry 17], the IC50 is below 50 nM.

In the case of `OCCn1cc(-c2cc(F)c(OCc3nnc(SC4C=CCCC4)n3-c3cccnc3)cc2F)nn1` (centres unmarked) [Entry 18], the IC50 was below 1000 nM.

Consider `CN1CCC(NC(=O)OCCn2cc(-c3cc(F)c(OCc4nnc(SC5C=CCCC5)n4-c4cccnc4)cc3F)nn2)CC1` (centres unmarked) [Entry 19], for which the IC50 was below 1000 nM.

Compound `COC(=O)Cn1ncc(-c2cc(F)c(OCc3nnc(SC4C=CCCC4)n3-c3cccnc3)cc2F)n1` (centres unmarked) [Entry 20] gave an IC50 below 50 nM.

The compound `O=C(O)Cn1ncc(-c2cc(F)c(OCc3nnc(SC4C=CCCC4)n3-c3cccnc3)cc2F)n1` (centres unmarked) [Entry 21] yielded an IC50 below 100 nM.

As to `CN1CCC(NC(=O)Cn2ncc(-c3cc(F)c(OCc4nnc(SC5C=CCCC5)n4-c4cccnc4)cc3F)n2)CC1` (centres unmarked) [Entry 22], the IC50 was below 50 nM.

On to `COC(=O)Cn1ncc(-c2cc(F)c(OCc3nnc(S[C@H]4C=CCCC4)n3-c3cccnc3)cc2F)n1` [Entry 23], for which the IC50 was below 50 nM.

A word on the IC50: it is the concentration needed to halve the response being measured.
